Laboratory results from patent publication US7858665B2, “Drugs for chronic pain” (Nicox S.A., priority 2002, dated 2010).

Columns and labels:
[1] = tested on: male Swiss mice; assay: Writhing test (acetic acid-induced abdominal contractions); format: in vivo; conditions: for Contractions number: 1 h before i.p. acetic acid, total contractions within 15 minutes
Experimental: Nine groups of male Swiss mice (20-25 g, Charles River), 10 animals each, received by oral administration through gastric tube (gavage) gabapentin in an amount of from 1 to 10 mg/kg or the compound of the invention (XVA, Example 1), hereinafter NO-gabapentin, in an amount of from 1 to 10 mg/kg dissolved in saline solution. One hour after administration of the compound solutions, through intraperitoneal injection the mice received a glacial acetic acid solution (0.5 ml, 0.6%). Within 15 minutes subsequent to the administration of acetic acid, in every animal the number of abdominal contractions was counted. Analysis was carried out in blind.
The results reported in Table 1 are given as the number of total contractions within the observation time (15 minutes).

[2] = tested on: male Swiss mice; assay: Paw licking test (formalin injected in paw); format: in vivo; conditions: for paw licking Phase I: phase I 0-15 minutes after formalin; for paw licking Phase I / paw licking Phase II: 3 mg/kg oral (gabapentin 17.5 μm/kg, NO-gabapentin 8.5 μm/kg), 1 h before formalin; for paw licking Phase II: phase II 15-30 minutes after formalin
Experimental: Three groups of male Swiss mice (20-25 g, Charles River), 10 animals each, received by oral administration as in Example F1 gabapentin in an amount of 3 mg/kg (17.5 μm/kg) or the compound of formula (XVA, Example 1), hereinafter NO-gabapentin, in an amount of 3 mg/kg (8.5 μm/kg) dissolved in saline solution. The control group received an equal volume of saline solution. One hour after administration of the compound solutions, the mice were injected with formalin in the paw (10 μl).
The formalin injection induced a biphasic reaction. In first phase (phase I, 0-15 minutes) an acute inflammation was observed; in the second phase (phase II, 15-30 minutes) a release of chemical mediators occurred as in neurophatic pain. Within 30 minutes subsequent to formalin injection, in each animal the time in seconds in which the animal licked its paw was recorded. Analysis was carried out in blind.
The results reported in Table 2 are expressed as the entire time in seconds in which paw licking in animals during the first and second phase as defined above was observed.

[3] = tested on: chronic constriction injury of the rat sciatic nerve; assay: Neuropathic pain model: chronic constriction injury of the rat sciatic nerve, vocalization threshold to paw pressure; format: in vivo; conditions: for Vocalization threshold to pressure in the injured paw (VTPP): 175 μmoles/kg, ip, day 14 post lesion
Description: We have tested the antinoceptive effects of compound of formula (XVA, Example 1), hereinafter NO-gabapentin, in the model of neuropathic pain constituted by the chronic constriction injury of the rat sciatic nerve. The parent compound gabapentin has been used as reference drug.
The unilateral peripheal mononeuropathy was obtained according to the method described by Bennet G J and Xie Y K, Pain (33) 1988: 87-107. Sample populations ranging from 8 to 12 rats (SD males weighting 250-300 g) for condition were used. The antinoceptive effect of the drugs was determined by measuring the vocalization threshold (VTPP) elicited by paw pressure both at the injured and at the controlateral side. The test was performed at day 14 post lesion. All compounds were tested for acute antinoceptive effects. Acute effects were determined within 60 min following a single intraperitoneal (i.p.) injection of the drugs prior to the test.
Each group of the rats received gabapentin at the dose of 30 mg/kg (175 μmoles/kg), or an equimolar dose of NO-gabapentin (175 μmoles/kg), or the same volume of vehicle (Control group). The drugs were dissolved (20 mg/mL) in vehicle containing saline: DMSO: Castor oil (68:8:24).

[4] = tested on: human umbilical vein cells; assay: NO generation by NO-donors in endothelial cells (chemiluminescence); format: cell-based; conditions: incubation of 100 μl nicorandil, 5 minutes
Experimental: Plated human umbilical vein cells with density of 10^3 cells/well, have been incubated 5 minutes with NO-donor scalar concentrations (1-100 μg/ml). Incubation medium (physiological solvent, i.e. Tyrode) has been then analysed to ascertain the ability to generate NO by means of: 1) nitric oxide detection by chemiluminescence, As far as chemiluminescence analysis is concerned, a 100 μl aliquot has been injected into reaction chamber of an chemiluminescence analyzer containing glacial acetic acid and potassium iodide. […] As usual in devices measuring chemiluminescence, the produced luminescence is directly proportional to the generated NO levels and can be measured by means of the suitable photomultiplier unity of an chemiluminescence analyzer. The photomultiplier turns incident light into electric voltage, that then is quantitatively registered. Referring to a calibration curve, obtained with scalar nitrite concentrations, it has been possible to quantitatively evaluate the concentration of the generated NO. For example, from incubation of […], an amount of about 10 μM NO was generated.

[5] = tested on: washed human platelets; assay: NO generation by NO-donors in platelets (chemiluminescence); format: cell-based; conditions: incubation of 100 μM, 5 minutes
Experimental: Washed human platelets have been used, obtained as described by Radomski et al., (Br. J. Pharmacol. 92, 639-1987). Amounts of 0.4 ml were incubated 5 minutes with scalar NO-donor concentrations (1-100 μg/ml). […] As to the chemiluminescence assay, also in this case on the basis of a calibration curve plotted with nitrite scalar concentrations, it has been possible to quantitatively define the concentration of the generated NO. For example, after incubation of 100 μM nicorandil, an amount of 35 μM of NO was generated.

Compound | activity in inhibiting abdominal contraction amount, compared with gabapentin ([1]; 1 to 10 mg/kg oral) | Contractions number ([1]; dose 1 mg/kg oral) | Contractions number ([1]; dose 3 mg/kg oral) | Contractions number ([1]; dose 10 mg/kg oral) | paw licking Phase I [2] [s] | activity in inhibiting paw licking in first phase, compared with gabapentin ([2]; phase I, molar dose corresponding to 50% of gabapentin) | paw licking Phase II [2] [s] | effectiveness in second phase, compared with gabapentin ([2]; phase II, molar dose corresponding to 50% of gabapentin) | Vocalization threshold to pressure in the injured paw (VTPP) ([3]; 0 min post-dosing) [grams] | Vocalization threshold to pressure in the injured paw (VTPP) ([3]; 5 min post-dosing) [grams] | Vocalization threshold to pressure in the injured paw (VTPP) ([3]; 10 min post-dosing) [grams] | Vocalization threshold to pressure in the injured paw (VTPP) ([3]; 20 min post-dosing) [grams] | Vocalization threshold to pressure in the injured paw (VTPP) ([3]; 40 min post-dosing) [grams] | Vocalization threshold to pressure in the injured paw (VTPP) ([3]; 60 min post-dosing) [grams] | antinoceptive efficacy compared with gabapentin ([3]; equimolar dose 175 μmoles/kg i.p.) | amount of NO generated [4] | amount of NO generated [5] [µM]
O=C(O)CC1(CNC(=O)c2ccc(CO[N+](=O)[O-])cc2)CCCCC1 [NO-gabapentin, 1-[4-(nitrooxymethyl)benzoylaminomethyl]-cyclohexaneacetic acid] | more active than precursor drug | 24 | 15 | 15 | 50 | more active than the starting drug | 60 | less effective | 153 ± 10 | 187 ± 10 | 307 ± 14 | 325 ± 08 | 390 ± 11 | 382 ± 09 | more efficacious than gabapentin |  | 
O=C(NCCO[N+](=O)[O-])c1cccnc1 [nicorandil] |  |  |  |  |  |  |  |  |  |  |  |  |  |  |  | about 10 μM | 35
NCC1(CC(=O)O)CCCCC1 [Gabapentin, 1-(aminomethyl)cyclohexaneacetic acid, reference compound] |  | 32 | 22 | 27 | 85 |  | 30 |  | 160 ± 10 | 165 ± 23 | 191 ± 29 | 250 ± 24 | 266 ± 26 | 250 ± 38 |  |  | 
